These compounds were tested against T1, human glucocorticoid receptor (GR) complex (Homo sapiens, UniProt P04150) (assay: Glucocorticoid receptor competitive binding assay (fluorescence polarization)). Details: competition with TAMRA-labeled dexamethasone.
T1 construct: made in house; host or cells: insect expression system (baculovirus lysate)
T1 sequence (P04150 1-777): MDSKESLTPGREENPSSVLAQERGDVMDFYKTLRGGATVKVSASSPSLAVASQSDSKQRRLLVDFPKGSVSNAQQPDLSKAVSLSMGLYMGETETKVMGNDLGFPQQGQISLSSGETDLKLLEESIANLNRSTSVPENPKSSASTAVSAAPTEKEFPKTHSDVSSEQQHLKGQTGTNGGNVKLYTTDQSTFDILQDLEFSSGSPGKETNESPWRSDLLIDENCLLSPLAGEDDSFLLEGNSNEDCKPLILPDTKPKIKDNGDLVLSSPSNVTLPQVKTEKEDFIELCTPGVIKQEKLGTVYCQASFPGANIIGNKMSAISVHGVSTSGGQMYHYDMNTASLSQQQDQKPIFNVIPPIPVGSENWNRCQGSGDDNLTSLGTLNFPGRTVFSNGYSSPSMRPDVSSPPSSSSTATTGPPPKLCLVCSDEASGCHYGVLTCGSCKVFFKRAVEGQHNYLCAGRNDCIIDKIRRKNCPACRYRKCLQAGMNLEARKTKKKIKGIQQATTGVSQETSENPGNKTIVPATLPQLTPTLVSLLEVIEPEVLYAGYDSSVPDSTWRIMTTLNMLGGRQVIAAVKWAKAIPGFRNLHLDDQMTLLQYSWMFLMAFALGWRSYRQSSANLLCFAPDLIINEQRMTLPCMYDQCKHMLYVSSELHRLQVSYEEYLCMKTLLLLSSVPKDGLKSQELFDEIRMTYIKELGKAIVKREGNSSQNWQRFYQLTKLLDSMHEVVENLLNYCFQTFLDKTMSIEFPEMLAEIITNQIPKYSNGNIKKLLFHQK
Procedure, shortened: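 Fluorescence polarization competition against TAMRA-labelled dexamethasone (50 μL of 15 nM added) for human GR complex from baculovirus insect-cell lysate, diluted 1:170, in TES/KCl/molybdate buffer, pH 7.4.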

Compound	activity in the GR binding assay
CC(C)(CC(O)(Cn1ccc(=O)c2ccccc21)C(F)(F)F)c1ccccc1 (centres unmarked) [1-[4-Phenyl-2-hydroxy-4-methyl-2-trifluoromethylpentyl]-1H-quinolin-4-one]	potent activity
CC(C)(CC(O)(Cn1ccc(=O)c2ccccc21)C(F)(F)F)c1cccc(C2(C)OCCO2)c1 (centres unmarked) [1-{2-Hydroxy-4-methyl-4-[3-(2-methyl-[1,3]dioxolan-2-yl)phenyl]-2-trifluoromethylpentyl}-1H-quinolin-4-one]	potent activity
CC(=O)COc1cccc(C(C)(C)CC(O)(Cn2ccc(=O)c3ccccc32)C(F)(F)F)c1 (centres unmarked) [1-{2-Hydroxy-4-methyl-4-[3-(2-oxopropoxy)phenyl]-2-trifluoromethylpentyl}-1H-quinolin-4-one]	potent activity
Cc1noc(C)c1-c1cccc(C(C)(C)CC(O)(Cn2ccc(=O)c3ccccc32)C(F)(F)F)c1 (centres unmarked) [1-{4-[3-(3,5-Dimethylisoxazol-4-yl)phenyl]-2-hydroxy-4-methyl-2-trifluoromethylpentyl}-1H-quinolin-4-one]	potent activity
COc1ccc(F)cc1C(C)(C)CC(O)(CN1CCN(C(C)=O)c2ccccc21)C(F)(F)F (centres unmarked) [1-{4-[4-(5-Fluoro-2-methoxyphenyl)-2-hydroxy-4-methyl-2-trifluoromethylpentyl]-3,4-dihydro-2H-quinoxalin-1-yl}ethanone]	potent activity
Cc1noc(C)c1-c1ccc(O)c(C(C)(C)CC(O)(Cn2ccc(=O)c3ccccc32)C(F)(F)F)c1 (centres unmarked) [1-{4-[5-(3,5-Dimethylisoxazol-4-yl)-2-hydroxyphenyl]-2-hydroxy-4-methyl-2-trifluoromethylpentyl}-1H-quinolin-4-one]	potent activity
COc1ccc(-c2c(C)noc2C)cc1C(C)(C)CC(O)(Cn1ccc(=O)c2ccccc21)C(F)(F)F (centres unmarked) [1-{4-[5-(3,5-Dimethylisoxazol-4-yl)-2-methoxyphenyl]-2-hydroxy-4-methyl-2-trifluoromethylpentyl}-1H-quinolin-4-one]	potent activity
CC(=O)COc1ccc(F)cc1C(C)(C)CC(O)(Cn1ccc(=O)c2ccccc21)C(F)(F)F (centres unmarked) [1-{4-[5-Fluoro-2-(2-oxopropoxy)phenyl]-2-hydroxy-4-methyl-2-trifluoromethylpentyl}-1H-quinolin-4-one]	potent activity
COc1ccc(F)cc1C(C)(C)CC(O)(CN1CCS(=O)(=O)c2ccccc21)C(F)(F)F (centres unmarked) [2-(1,1-Dioxo-2,3-dihydro-1H-1λ^6-benzo[1,4]thiazin-4-ylmethyl)-1,1,1-trifluoro-4-(5-fluoro-2-methoxyphenyl)-4-methylpentan-2-ol]	potent activity
COc1ccc(F)cc1C(C)(C)CC(O)(CN1CCSc2ccccc21)C(F)(F)F (centres unmarked) [2-(2,3-Dihydrobenzo[1,4]thiazin-4-ylmethyl)-1,1,1-trifluoro-4-(5-fluoro-2-methoxyphenyl)-4-methylpentan-2-ol]	potent activity
COc1ccc(F)cc1C(C)(C)CC(O)(CN1CCc2ccccc21)C(F)(F)F (centres unmarked) [2-(2,3-Dihydroindol-1-ylmethyl)-1,1,1-trifluoro-4-(5-fluoro-2-methoxyphenyl)-4-methylpentan-2-ol]	potent activity
COc1ccc(F)cc1C(C)(C)CC(O)(CN1CCNc2ccccc21)C(F)(F)F (centres unmarked) [2-(3,4-Dihydro-2H-quinoxalin-1-ylmethyl)-1,1,1-trifluoro-4-(5-fluoro-2-methoxyphenyl)-4-methylpentan-2-ol]	potent activity
COc1ccc(F)cc1C(C)(C)CC(O)(CN1CCN(c2ncc(C(F)(F)F)cc2Cl)CC1)C(F)(F)F (centres unmarked) [2-[4-(3-Chloro-5-trifluoromethylpyridin-2-yl)piperazin-1-ylmethyl]-1,1,1-trifluoro-4-(5-fluoro-2-methoxyphenyl)-4-methylpentan-2-ol]	potent activity
COc1ccc(F)cc1C(C)(C)CC(O)(Cn1cc(C(F)(F)F)cc(Cl)c1=O)C(F)(F)F (centres unmarked) [3-Chloro-1-[4-(5-fluoro-2-methoxyphenyl)-2-hydroxy-4-methyl-2-trifluoromethylpentyl]-5-trifluoromethyl-1H-pyridin-2-one]	potent activity
CC(C)(CC(O)(Cn1ccc(=O)c2ccccc21)C(F)(F)F)c1cccc(C=O)c1 (centres unmarked) [3-[4,4,4-Trifluoro-3-hydroxy-1,1-dimethyl-3-(4-oxo-4H-quinolin-1-ylmethyl)butyl]benzaldehyde]	potent activity
COc1ccc(C=O)cc1C(C)(C)CC(O)(Cn1ccc(=O)c2ccccc21)C(F)(F)F (centres unmarked) [4-Methoxy-3-[4,4,4-trifluoro-3-hydroxy-1,1-dimethyl-3-(4-oxo-4H-quinolin-1-ylmethyl)butyl]benzaldehyde]	potent activity
COc1ccc(F)cc1C(C)(C)CC(O)(CN1CC(C)N(C=O)C(C)C1)C(F)(F)F (centres unmarked) [4-[4-(5-Fluoro-2-methoxyphenyl)-2-hydroxy-4-methyl-2-trifluoromethylpentyl]-2,6-dimethylpiperazine-1-carbaldehyde]	potent activity
CC(C)(CC(O)(Cn1ccc(=O)c2cc(Cl)ccc21)C(F)(F)F)c1cc(F)ccc1O (centres unmarked) [6-Chloro-1-[4-(5-fluoro-2-hydroxyphenyl)-2-hydroxy-4-methyl-2-trifluoromethylpentyl]-1H-quinolin-4-one]	potent activity
COc1ccc(F)cc1C(C)(C)CC(O)(Cn1ccc(=O)c2cc(Cl)ccc21)C(F)(F)F (centres unmarked) [6-Chloro-1-[4-(5-fluoro-2-methoxyphenyl)-2-hydroxy-4-methyl-2-trifluoromethylpentyl]-1H-quinolin-4-one]	potent activity
CC(C)(CC(O)(Cn1ccc(=O)c2cc(F)ccc21)C(F)(F)F)c1cc(F)ccc1O (centres unmarked) [6-Fluoro-1-[4-(5-fluoro-2-hydroxyphenyl)-2-hydroxy-4-methyl-2-trifluoromethylpentyl]-1H-quinolin-4-one]	potent activity
COc1ccc(F)cc1C(C)(C)CC(O)(Cn1ccc(=O)c2cc(F)ccc21)C(F)(F)F (centres unmarked) [6-Fluoro-1-[4-(5-fluoro-2-methoxyphenyl)-2-hydroxy-4-methyl-2-trifluoromethylpentyl]-1H-quinolin-4-one]	potent activity
CC(C)(CC(O)(Cn1ccc(=O)c2ccc(Cl)cc21)C(F)(F)F)c1cc(F)ccc1O (centres unmarked) [7-Chloro-1-[4-(5-fluoro-2-hydroxyphenyl)-2-hydroxy-4-methyl-2-trifluoromethylpentyl]-1H-quinolin-4-one]	potent activity
COc1ccc(F)cc1C(C)(C)CC(O)(Cn1ccc(=O)c2ccc(Cl)cc21)C(F)(F)F (centres unmarked) [7-Chloro-1-[4-(5-fluoro-2-methoxyphenyl)-2-hydroxy-4-methyl-2-trifluoromethylpentyl]-1H-quinolin-4-one]	potent activity

— US7579469B2, “Glucocorticoid mimetics, methods of making them, pharmaceutical compositions, and uses thereof” (Boehringer Ingelheim Pharmaceuticals, Inc., priority 2003, dated 2009)
